How the values were obtained:
Jurkat cells [1] = settings: for Effect of GTPase inhibitor on cytotoxicity by 4 / Effect of GTPase inhibitor on cytotoxicity by CGP37157: inhibitor 1 h (dynasore, Mdivi-1 10–30 μM, CID1067700 1–10 μM); for Effect of GTPase inhibitor on cytotoxicity by 4: then 4 5 μM 1 or 3 h; for Effect of GTPase inhibitor on cytotoxicity by 4 / Effect of GTPase inhibitor on cytotoxicity by CGP37157 / Effect of Ca2+ channel inhibitor on cell death induced by celastrol / Effect of PCD inhibitor on cell death induced by CGP37157: MTT; for Effect of GTPase inhibitor on cytotoxicity by CGP37157: then CGP37157 100 μM 12 h; for Effect of Ca2+ channel inhibitor on cell death induced by 4 / Effect of Ca2+ channel inhibitor on cell death induced by celastrol: inhibitor 1 h (2-APB 50 μM, RuRed 10 μM, ER-000444793 10 μM); for Effect of Ca2+ channel inhibitor on cell death induced by 4: then 4 5 μM 3 h, microscopy and MTT; for Effect of Ca2+ channel inhibitor on cell death induced by celastrol: then celastrol 1 μM 12 h; for Effect of PCD inhibitor on cell death induced by CGP37157: Z-VAD-fmk 30 μM, Nec-1 30 μM, 3-MA 5 mM, CGP37157 100 µM, 12 h, three independent experiments
Jurkat cells [2] = test: Mitochondria-ER membrane fusion, co-staining with MitoTracker Green and ER-Tracker Red; format: cell-based; settings: celastrol 1 μM, 12 h
Procedure: To verify this hypothesis, mitochondria and the ER were stained with both MitoTracker Green and ER-Tracker Red in the presence of 4, CGP37157, and celastrol (Figure 8). Jurkat cells were stained with MitoTracker Green (0.5 μM) and ER-Tracker Red (1 μM) and then treated with 4 (5 μM) for 10–30 min (time-dependent microscopic images are presented in Figure S5). […] With regard to CGP37157 and celastrol, Jurkat cells were stained with MitoTracker Green (0.5 μM) and ER-Tracker Red (1 μM) and then treated with CGP37157 (100 μM) and celastrol (1 μM) for 1–24 h (Figure 8 and Figure S5).
In a 1.5 mL Eppendorf tube, Jurkat cells (2.0 × 10^5 cells) were stained with MitoTracker Green (0.5 μM) for 1 h at 37 °C under 5% CO2 and then ER-Tracker Red (1 μM) for 1 h at 37 °C under 5% CO2 in 10% FBS/RPMI 1640 medium (100 μL). After being washed with PBS, the cells were treated with 4 (5 μM) in 10% FBS/RPMI 1640 medium (100 μL) for 0–30 min at 37 °C under 5% CO2. For CGP37157 and celastrol, Jurkat cells were treated with CGP37157 (100 μM) or celastrol (1 μM) in 10% FBS/RPMI 1640 medium (100 μL) for 0–24 h, after which the cells were stained with MitoTracker Green (0.5 μM) for 1 h at 37 °C under 5% CO2 and then ER-Tracker Red (1 μM) for 1 h at 37 °C under 5% CO2 in PBS. The cells were washed with PBS and observed by confocal microscopy (Fluoview, FV-1000, Olympus) using a Greiner CELLview dish (35 mm × 10 mm). Excitation at 473 nm and emission from 485 to 545 nm were used for MitoTracker Green. Excitation at 559 nm and emission from 570 to 620 nm were used for ER-Tracker Red. The exposure time was 20 μs/pixel.

mitofusin 2 (MFN2) = test: Western blot analysis of MFN2 in Jurkat cells; format: cell-based; settings: for MFN2 band intensity relative to absence of compound: Figure S8C, 24 h
Procedure: (§1) In a 1.5 mL Eppendorf tube, Jurkat cells (1.0 × 10^6 cells) were incubated in the presence of 4 ([…]), CGP37157 (100 μM for 0–24 h or 0–100 μM for 12 h), and celastrol (0–10 μM for 24 h or 1 μM for 0–24 h) at 37 °C under 5% CO2. After the cells had been washed twice with PBS, the proteins were extracted by using RIPA buffer (Nacalai Tesque) and quantified using a Pierce BCA Protein Assay Kit (Thermo Scientific). Proteins (7.5 μg/well) for MFNs and DRP1 and proteins (5.0 μg/well) for GAPDH were used for sodium dodecyl sulfate–polyacrylamide gel electrophoresis (SDS–PAGE) (7.5% for MFNs and DRP1 and 10% for GAPDH) (Bio-Rad). After SDS–PAGE, the proteins were transferred to a polyvinylidene fluoride membrane (Merck Millipore) by using a semi dry blotter (Bio-Rad). The membrane was blocked with Blocking One solution (Nacalai Tesque) for 30 min at room temperature. After being blocked, the membrane was washed three times with 1× TBST and treated with primary antibodies overnight (at a dilution of 1/1000 for MFNs and DRP1 or 1/2000 for GAPDH) in a signal enhancer HIKARI-solution A (Nacalai Tesque). The membrane was washed three times with 1× TBST and treated with the anti-mouse or anti-rabbit IgG HRP-conjugated secondary antibody (at a dilution of 1/4000 for MFNs and DRP1 or 1/10000 for GAPDH) in 1× TBST for 60 min at room temperature. The protein signal was spotted with a Chemi-Lumi One Ultra solution (Nacalai Tesque) using the ChemiDoc MP system (Bio-Rad). […]

[3] = tested on: MFN1- and/or MFN2-KD Jurkat cells; test: MTT assay of MFN1- and/or MFN2-KD Jurkat cells; format: cell-based; settings: siRNA 10 nM, celastrol 1 µM, 12 h, three independent experiments
Procedure: The roles of MFNs in the cell death induced by 4 and CGP37157 were examined by using small interfering RNA (siRNA) for MFN1 and MFN2 to knock down (KD) these proteins. […] The cytotoxicity of 4 and CGP37157 against MFN1- and/or MFN2-KD Jurkat cells was evaluated by MTT assays. […] The effect of a negative control siRNA (NCsiRNA) on the expression levels of MFNs and the cell viability of Jurkat cells was negligible, implying that MFNs are […] to the paraptosis induced by 4 and CGP37157. It should be noted that the treatment with siRNA at 5 nM for 72 h was toxic against Jurkat cells in the presence of 4 and CGP37157, although the efficiency of knockdown of these proteins by siRNA could be improved by increasing the incubation time, as shown in Figure S11.
To a solution of transfection reagent (INTERFERin, 5 μL) in OPTI-MEM (0.3 mL) in a 1.5 mL Eppendorf tube was added siRNA (10 μM, 1 or 2 μL) in H2O, and the resulting solution was allowed to stand for 15 min at room temperature. The resulting solution was then added to Jurkat cells (2.0 × 10^5 cells/mL, 1.5 mL) in 10% FBS/RPMI 1640 medium that had been seeded on a 12-well plate and incubated overnight at 37 °C under 5% CO2 (the final concentration of siRNA was 5 or 10 nM), and the resulting solution was incubated for 48 or 72 h at 37 °C under 5% CO2. The cells were collected by centrifugation (2000 rpm, 3 min, 4 °C), and the expression levels of MFNs were evaluated by Western blot analysis as described above. The cytotoxicity of 4 (3 or 5 μM), CGP37157 (50 or 100 μM), and celastrol (1 μM) against MFNs-KD Jurkat cells was evaluated by MTT assays as described above.

Jurkat cells [4] = test: TEM analysis of cytoplasmic vacuolization; format: cell-based; settings: celastrol 1 μM, 24 h
Procedure: The morphological changes in Jurkat cells induced by CGP37157 (Figure 3B) were similar to those induced by 4 (Figure 1B) and confirmed in detail by TEM (transmission electron microscopy). Jurkat cells were treated with CGP37157 (100 μM) for 12 h, prefixed with glutaraldehyde and postfixed with osmium tetroxide (OsO4), and included in Poly 812 resin. The resulting samples were sliced and then observed by TEM. […] Similar TEM images were reported with respect to paraptosis-inducing natural compounds by some research groups: (i) paraptosis in MDA-MB 435S cells,[17] HeLa cells,[18] and Jurkat cells (Figure 4d and in our previous publications)[56]−[58] induced by celastrol, (ii) paraptosis in HeLa cells induced by 8-p-hydroxybenzoyl tovarol,[23] and (iii) paraptosis in A2780 cells and SKOV-3 cells induced by morusin.[22] Therefore, we believe that Jurkat cells undergo vacuolization in the paraptotic processes induced by 4 and CGP37157, as well as celastrol.
In a 1.5 mL Eppendorf tube, Jurkat cells (3.0 × 10^6 cells) were incubated with 4 (5 μM for 3 h), CGP37157 (100 μM for 12 h), and celastrol (1 μM for 24 h) in 10% FBS/RPMI 1640 medium at 37 °C under 5% CO2. After centrifugation (2000 rpm, 3 min, 4 °C), the cells were washed twice with PBS, prefixed with glutaraldehyde (2.5%) at 4 °C for 40 min, and then washed twice with PBS. Osmium tetroxide (1%) was used for postfixation, and the solution was incubated at 4 °C for 30 min. The cells were washed with PBS, included in an agarose gel, and dehydrated by using 50–100% and anhydrous EtOH. The cells were embedded into Poly 812 resin (Nisshin EM Co. Ltd.) at 60 °C for 3 days. The resin was sliced with a glass knife (150 nm thickness) on an ultramicrotome (EM UC6, Leica), and the samples were stained with EM stainer (Nisshin EM Co. Ltd.) and observed on TEM instrument (H-7650, Hitachi) with electron irradiation at 100 kV.

mitofusin 1 (MFN1) = test: Western blot analysis of MFN1 in Jurkat cells; format: cell-based; settings: for MFN1 band intensity relative to absence of compound: Figure S8C, 24 h
Procedure: as §1

[5] = tested on: dynamin-related protein 1 (DRP1); test: Western blot analysis of DRP1 in Jurkat cells; format: cell-based; settings: for DRP1 band intensity relative to absence of compound: Figure S8C, 24 h
Procedure: In a 1.5 mL Eppendorf tube, Jurkat cells (1.0 × 10^6 cells) were incubated in the presence of 4 ([…]), CGP37157 (100 μM for 0–24 h or 0–100 μM for 12 h), and celastrol (0–10 μM for 24 h or 1 μM for 0–24 h) at 37 °C under 5% CO2. After the cells had been washed twice with PBS, the proteins were extracted by using RIPA buffer (Nacalai Tesque) and quantified using a Pierce BCA Protein Assay Kit (Thermo Scientific). Proteins (7.5 μg/well) for MFNs and DRP1 and proteins (5.0 μg/well) for GAPDH were used for sodium dodecyl sulfate–polyacrylamide gel electrophoresis (SDS–PAGE) (7.5% for MFNs and DRP1 and 10% for GAPDH) (Bio-Rad). After SDS–PAGE, the proteins were transferred to a polyvinylidene fluoride membrane (Merck Millipore) by using a semi dry blotter (Bio-Rad). The membrane was blocked with Blocking One solution (Nacalai Tesque) for 30 min at room temperature. After being blocked, the membrane was washed three times with 1× TBST and treated with primary antibodies overnight (at a dilution of 1/1000 for MFNs and DRP1 or 1/2000 for GAPDH) in a signal enhancer HIKARI-solution A (Nacalai Tesque). The membrane was washed three times with 1× TBST and treated with the anti-mouse or anti-rabbit IgG HRP-conjugated secondary antibody (at a dilution of 1/4000 for MFNs and DRP1 or 1/10000 for GAPDH) in 1× TBST for 60 min at room temperature. The protein signal was spotted with a Chemi-Lumi One Ultra solution (Nacalai Tesque) using the ChemiDoc MP system (Bio-Rad).

[6] = celastrol 1 μM 0–24 h or 0–10 μM 24 h

Compound: COc1cc(-n2c(=S)[nH]c3ccccc3c2=O)c(Cl)cc1Cl [Mdivi-1]
- Effect of GTPase inhibitor on cytotoxicity by 4 (Jurkat cells [1]): negligible effect
- Effect of GTPase inhibitor on cytotoxicity by CGP37157 (Jurkat cells [1]): negligible effect

Compound: N.N.N.N.N.N.N.N.N.N.N.N.N.N.[Cl-].[Cl-].[Cl-].[Cl-].[Cl-].[Cl-].[O-2].[O-2].[Ru+3].[Ru+3].[Ru+4] [RuRed, ruthenium red]
- Effect of Ca2+ channel inhibitor on cell death induced by 4 (Jurkat cells [1]): negligible inhibitory effects
- Effect of Ca2+ channel inhibitor on cell death induced by celastrol (Jurkat cells [1]): negligible inhibitory effects

Compound: CC1=C(O)C(=O)C=C2C1=CC=C1[C@@]2(C)CC[C@@]2(C)[C@@H]3C[C@](C)(C(=O)O)CC[C@]3(C)CC[C@]12C [celastrol]
- Overlap of MitoTracker Green and ER-Tracker Red emission (mitochondria-ER membrane fusion) (Jurkat cells [2]): negligible
- MFN2 band intensity relative to absence of compound (mitofusin 2 (MFN2); celastrol 1 µM): 0.29
- MFN2 band intensity relative to absence of compound (mitofusin 2 (MFN2); celastrol 2 µM): 0.21
- MFN2 band intensity relative to absence of compound (mitofusin 2 (MFN2); celastrol 5 µM): 0.21
- MFN2 band intensity relative to absence of compound (mitofusin 2 (MFN2); celastrol 8 µM): 0.22
- MFN2 band intensity relative to absence of compound (mitofusin 2 (MFN2); celastrol 10 µM): 0.15
- Expression level of MFN2 (Figure 11C, S8C) (mitofusin 2 (MFN2); [6]): decreased
- Effect of knockdown of MFNs on cell death induced by the compound [3]: negligible effect
- Morphological change by TEM (Jurkat cells [4]): cytoplasmic vacuolization
- MFN1 band intensity relative to absence of compound (mitofusin 1 (MFN1); celastrol 1 µM): 0.56
- MFN1 band intensity relative to absence of compound (mitofusin 1 (MFN1); celastrol 2 µM): 0.51
- MFN1 band intensity relative to absence of compound (mitofusin 1 (MFN1); celastrol 5 µM): 0.45
- MFN1 band intensity relative to absence of compound (mitofusin 1 (MFN1); celastrol 8 µM): 0.43
- MFN1 band intensity relative to absence of compound (mitofusin 1 (MFN1); celastrol 10 µM): 0.37
- Expression level of MFN1 (Figure 11C, S8C) (mitofusin 1 (MFN1); [6]): decreased
- DRP1 band intensity relative to absence of compound ([5]; celastrol 1 µM): 0.92
- DRP1 band intensity relative to absence of compound ([5]; celastrol 2 µM): 0.81
- DRP1 band intensity relative to absence of compound ([5]; celastrol 5 µM): 0.44
- DRP1 band intensity relative to absence of compound ([5]; celastrol 8 µM): 0.20
- DRP1 band intensity relative to absence of compound ([5]; celastrol 10 µM): 0.19
- Expression level of DRP1 (Figure 11C, S8C) [5, 6]: decreased

Compound: Cn1cnc(N)c2ncnc1-2 [3-methyladenine]
- Effect of PCD inhibitor on cell death induced by CGP37157 (Jurkat cells [1]): negligible inhibition

Compound: Benzyloxycarbonyl-Val-Ala-Asp(OMe) fluoromethylketone [Z-VAD-fmk]
- Effect of PCD inhibitor on cell death induced by CGP37157 (Jurkat cells [1]): weakly inhibited

Compound: CC1(C)Cc2c(sc(NC(=S)NC(=O)c3ccccc3)c2C(=O)O)CO1 [CID1067700]
- Effect of GTPase inhibitor on cytotoxicity by 4 (Jurkat cells [1]): negligible effect
- Effect of GTPase inhibitor on cytotoxicity by CGP37157 (Jurkat cells [1]): negligible effect

Compound: O=C(Nc1ccccc1Cc1ccccc1)c1cc(=O)[nH]c2ccccc12 [ER-000444793]
- Effect of Ca2+ channel inhibitor on cell death induced by 4 (Jurkat cells [1]): negligible inhibitory effects
- Effect of Ca2+ channel inhibitor on cell death induced by celastrol (Jurkat cells [1]): negligible inhibitory effects

Compound: CN1C(=O)C(Cc2c[nH]c3ccccc23)NC1=S (stereo not shown) [necrostatin-1]
- Effect of PCD inhibitor on cell death induced by CGP37157 (Jurkat cells [1]): negligible inhibition

Compound: NCCOB(c1ccccc1)c1ccccc1 [2-APB, 2-Aminoethoxydiphenyl borate]
- Effect of Ca2+ channel inhibitor on cell death induced by 4 (Jurkat cells [1]): negligible inhibitory effects
- Effect of Ca2+ channel inhibitor on cell death induced by celastrol (Jurkat cells [1]): negligible inhibitory effects
